Assay type in all cases: in vivo
The test system of data set [1] is compartment syndrome. Description: Porcine model of compartment syndrome: PMN activation and capillary perfusion (IVVM). Conditions: pig, 6 h elevated ICP, 10 mg/kg. Here is the method: (§1) Following the basic surgical setup (anesthesia, intubation, auricular vein and femoral artery catheterization), the animals undergo 6 hours of elevated intra-compartmental pressure (i.e. CS), followed by fasciotomy and reperfusion. The time interval was chosen in order to closely mimic the condition in human patients. CORM-3 (or iCORM-3), 10 mg/kg of animal is applied prior to fasciotomy. Blood is sampled at various time intervals (baseline, 1 hr CS, 2 hr CS, 3 hr CS, 4 hr CS, 5 hr CS, 6 hr CS/fasciotomy, and every 10-15 min post-fasciotomy, for a total of 20 samples per animal), in order to monitor leukocyte activation and serum TNF-α levels. IVVM is carried out at 3 hours post-fasciotomy.

Data set [2] concerns compartment syndrome. The data set is described as follows: CatWalk gait assessment in rats after CS without fasciotomy. Conditions: rat, 180 min CS, no fasciotomy. Here is the method: Animal preparation and synthesis of CORM-3 were similar to Example 3.
Complete inducement of CS occurred at about 180 minutes post induction. The animals were injected at 180 minutes and every 24 hours thereafter.
Quantitative assessment of footfalls and gait in the rats was assessed using CatWalk™, which a system for quantitative assessment of footfalls and gait in rats and mice.

Data set [3] can be described thus: Systemic leukocyte counts, hemoglobin and carboxyhemoglobin in rat CS model. From the text:
(§2) The experimental protocol was approved by the Council on Animal Care of the University of Western Ontario, and has been previously described in detail. Briefly, male Wistar rats (body weight 180-250 g) were anesthetized by inhalational isoflurane (5% induction, 2% maintenance) in 1:1 oxygen/nitrogen mixture. Left carotid artery was cannulated to allow for the monitoring of systemic blood pressure, fluid administration and blood sampling.
(§3) Compartment pressure monitoring probe (Synthes, Westchester Pa.) was inserted into the posterior compartment via gauge 16 angiocatheter (BD), while gauge 24 angiocatheter (BD) attached to an IV line was placed into the anterior compartment of the rat hind limb. CS was induced by an infusion of isotonic saline, leading to an elevation of intra-compartmental pressure (ICP) to 30 mmHg. Elevated ICP was maintained for 2 hours. Fasciotomy was performed to decompress the hind limb compartments; the muscles were allowed to reperfuse for 45 minutes, followed by intravital video microscopy.
(§4) Rats were randomly assigned to one of four experimental groups: sham (n=4), CS (n=4), CS+CORM-3 (n=8) and CS+iCORM-3 (n=8).
Two hours of elevated ICP were followed by fasciotomy, injection of CORM-3 (or iCORM-3) and 45 min reperfusion. CS-associated rise in systemic leukocytes was reversed by CORM-3 application (*p<0.01 from sham; †p<0.05 from CS+iCORM-3). CORM-3 and iCORM-3 caused no changes in systemic levels of COHb. LKC, leukocyte counts; COHb, carboxyhemoglobin.

In data set [4] the test system is TNF-α. The data set is described as follows: Serum TNF-α (ELISA) in rat CS model. Particulars: 30 and 45 minutes post-fasciotomy, 10 mg/kg IP. Here is the method:
TNF-α levels were measured from arterial blood samples drawn at 9 time points: (1) baseline, (2) 15 minutes into CS, (3) 45 minutes into CS, (4) 90 minutes into CS, (5) 2 hours into CS-just prior to fasciotomy and CORM-3 (or iCORM-3) injection, (6) 10 minutes post-fasciotomy, (7) 20 minutes post fasciotomy, (8) 30 minutes post fasciotomy, (9) 45 minutes post fasciotomy, just before IVVM. TNF-α was assessed using enzyme-linked immunosorbent assay (ELISA, Pierce Biotechnology, c/o Thermo Scientific, Rockford, Ill.) according to manufacturer's instructions. The TNF-α ELISA was sensitive to less than […].

The subject of data set [5] is TNF-α. Description: Serum TNF-α time course in porcine model of CS. Conditions: pig, 6 h elevated ICP, 10 mg/kg, 3 h reperfusion. Here is the method:
as §1

The test system of data set [6] is CS-challenged skeletal muscle (EDL). Description: Rat compartment syndrome model, intravital video microscopy (IVVM) of EDL muscle.
From the text: as §2, §3, §4
The extensor digitorum longus (EDL) muscle was dissected to the level of its distal tendon, which was tied with a suture and cut from its bony insertion. The animal was transferred onto the stage of an inverted microscope (Nikon™); the EDL was reflected into a saline bath containing 5 μg/ml each of the fluorescent vital dyes bisbenzimide (BB; exc. 343 nm, em. 483 nm) and ethidium bromide (EB; exc. 482 nm, em. 616 nm). BB stains the nuclei of all cells while EB stains the nuclei of only those cells with damaged cell membrane. Thus, EB/BB ratio provided an index of tissue injury.
Microvascular perfusion and leukocytes within the post-capillary venules were recorded by translumination with 20× and 40× objectives, respectively, in five adjacent fields of view. Fluorescence microscopy was used to visualize the BB and EB from the same fields of view that had been selected for the measurement of capillary perfusion. At the conclusion of the experiment, rats were euthanized by an overdose of anesthetic agent.
Capillary perfusion was assessed by counting the number of continuously-perfused (CPC), intermittently-perfused (IPC) and non-perfused (NPC) capillaries that crossed three parallel lines drawn perpendicular to the capillary axis on the video monitor, and was expressed as % of total capillaries. Tissue injury was assessed by counting the number of EB- and BB-labelled nuclei, and expressed as EB/BB ratio. Leukocyte activation was assessed by counting the numbers of rolling and adherent leukocytes in post-capillary venules and expressed per 1000 μm^2. Venular area was measured using ImageJ (NIH, Bethesda, Md.). A leukocyte was considered adherent if it remained stationary for at least 30 seconds, and a cell was considered rolling if it remained in contact with the wall of the vessel during its movement.

Setting [7] is: rat CS model, 10 mg/kg IP at fasciotomy.
Where [8] appears, read: rat, 2 h elevated ICP, fasciotomy, 10 mg/kg IP, 45 min reperfusion, mean±SEM.
Setting [9] is: rat CS model, CORM-3 versus control.

“Also recorded” adds a separate entry of the source.

In the case of `NCC(=O)O.[C-]#[O+].[C-]#[O+].[C-]#[O+].[Cl][Ru]` [CORM-3, tricarbonylchloro-glycinate-ruthenium(II)], in the data set on compartment syndrome [1] (IVVM 3 h post-fasciotomy), the “Continuously-perfused capillaries (CPC)” value is on record as “increase”, the “Intermittently-perfused capillaries (IPC)” value is “decrease” and the “Non-perfused capillaries (NPC)” value is given as “decrease”. Further, the “Number of activated PMNs post-fasciotomy” value with compartment syndrome [1] (fasciotomy, versus iCORM-3) is listed as “significant decrease”. In the data set with compartment syndrome [2] (10 mg/kg IP at 180 min and every 24 h, relative to iCORM-3), the “Static and dynamic gait functional parameters (CatWalk)” value is reported as “significantly improved”. Besides, the “Weight bearing parameters (CatWalk)” value with compartment syndrome [2] (multi dose 10 mg/kg IP) is reported as “improvement”. Moreover, in data set [3] (rat CS model, 10 mg/kg IP), the “Effect on COHb levels” value is “no effect”. In addition, in data set [3] (setting [7]), the “Effect on CS-associated rise in systemic leukocyte counts” value is recorded as “decrease the severity of this response”. Also, in data set [3] (setting [8]), the “COHb (carboxyhemoglobin)” value is given as 1.6 ± 0.1%, the Hemoglobin came out at 129.5 ± 2.7 g/L and the “LKC (systemic leukocyte counts)” value was 2.3 ± 0.2^† Units × 10^9/L. Further, the “Serum TNF-α in post-fasciotomy/reperfusion period” value in the data set on TNF-α [4] is recorded as “effectively prevented; also recorded: reversed”. Moreover, the “Serum TNF-α release associated with post-fasciotomy/reperfusion” value in the data set with TNF-α [5] is “prevented any TNF-α release”. Besides, in data set [6] (rat CS model, 10 mg/kg IP), the “Effect on leukocyte adhesion within post-capillary venules” value was “prevent leukocyte adhesion” and the “Effect on leukocyte rolling” value is “no effect”. For the same compound, in data set [6] (setting [7]), the “Effect on CS-associated microvascular perfusion changes” value is on record as “reversed” and the “Effect on CS-associated tissue injury” value was “reversed”. Further, in data set [6] (setting [9]), the “Decrease in leukocyte adherence (leukocyte activation)” value is listed as 8 fold and the “Decrease in tissue injury” value is recorded as 4 fold. For the same compound, in data set [6] (setting [8]), the “Leukocyte adherence in post-capillary venules” value was found to be 0.6±0.3 leukocytes/30 s/1000 μm^2; the “Leukocyte rolling in post-capillary venules” value came out at 3.0±0.8 leukocytes/30 s/1000 μm^2; the “Muscle injury, EB/BB ratio” value is 0.07±0.01. In addition, the “Continuously-perfused capillaries (CPC)” value in data set [6] (rat, % of total capillaries, 2 h elevated ICP, fasciotomy, 10 mg/kg IP, 45 min reperfusion, mean±SEM) is 57±5%.

These data come from patent US9421222B2, “Treatment of compartment syndrome” (LONDON HEALTH SCIENCES CENTRE RESEARCH INC., priority 2013, dated 2016).
